# From article PMC8540953, “Preparation and Pharmacokinetic Characterization of an Anti-Virulence Compound Nanosuspensions” (Pharmaceutics, 2021)
# Experiments:
# [1] = In vitro dissolution in 0.5% SDS solution; format: physicochemical; settings: 37 °C, 75 rpm
# Description: The concentrations of CCG-211790 nanosuspensions were measured using an Agilent series 1100 HPLC system (Agilent Technologies, Santa Clara, CA, USA) equipped with a diode array detector. Sample separation was carried out with a Kinetex C18 column (75 mm × 3 mm, particle size 2.6 µm, Phenomenex, Torrance, CA, USA). The mobile phase was acetonitrile-water (50:50, v/v), flow rate was set to 0.5 mL/min, and column temperature to 35 °C. The injection volume was 30 µL. The absorption wavelength was set at 255 nm. CCG-211790 nanoparticles were dissolved in the mobile phase for HPLC analysis. Due to the fact that the analyte concentration was high and no other matrix was present in the sample, the HPLC method performed very well with excellent calibration linearity, reproducibility, and spike recovery. During sample analysis, ongoing quality controls were performed including a reagent blank, a duplicate sample, and spike recovery samples for every 10 samples analyzed.
# The in vitro dissolution profiles of CCG-211790 bulk powder, NanoA and NanoB suspensions were examined. SDS is one of the most frequently used artificial surfactants in dissolution test to establish sink conditions for water-insoluble drugs. Therefore, a SDS solution (0.5% w/v in water) was used as the dissolution medium in this study. In each dissolution test, suspension or powder equivalent to 4 mg of CCG-211790 were directly dispersed in 500 mL dissolution medium under magnetic stirring at 75 rpm. The temperature of the dissolution medium was maintained at 37 ± 1 °C in a water bath. Sample aliquots (3 mL) were withdrawn at predetermined time points (5, 10, 20, 30, 45, and 60 min) and immediately replaced with 3 mL of fresh dissolution medium to readjust the volume to 500 mL. Undissolved particles were separated by centrifugation at 10,000× g for 5 min and the supernatant was collected for HPLC analysis. All experiments were run in triplicate.
# [2] = cited from earlier work
# [3] = Solubility and solution stability of CCG-211790; format: physicochemical; settings: PEG/PG solution, aqueous with cosolvent or surfactant or cyclodextrin; ethanol (10%), propylene glycol (25%), PEG 400 (35%) and water (30%)
# [4] = test system: methicillin-resistant Staphylococcus aureus (MRSA); set-up: method as in PMID 33556134; settings: cited from earlier work
Structure (SMILES),drug release ([1]; at 5 min) [%],drug release ([1]; at 45 min) [%],drug release ([1]; at 60 min) [%],aqueous solubility [2],solubility in coconut oil [2],solubility [3] [µg/mL],biofilm formation of MRSA [4]
COc1ccc2c(c1)-c1nc(SCC(F)(F)F)n(C)c(=O)c1C(C)(C)C2 [CCG-211790 bulk powder],19.6,63.4,64.3,–,–,–,–
"COc1ccc2c(c1)-c1nc(SCC(F)(F)F)n(C)c(=O)c1C(C)(C)C2 [CCG-211790, 9-methoxy-3,5,5-trimethyl-2-((2,2,2-trifluoroethyl)thio)-5,6-dihydrobenzo[h]quinazolin-4(3H)-one]",–,–,–,less than 50 ng/mL,up to 37 mg/mL,≤ 1000,inhibited
